From patent publication US6413764B1, “Human metabotropic glutamate receptors, nucleic acids encoding same and uses thereof” (Merck & Co., Inc., priority 1993, dated 2002)
Like-named read-outs stand apart in the source and are kept apart here.

Columns and labels:
human mGluR5a receptor [1] = molecular target: T1, human mGluR5a receptor (Homo sapiens, UniProt P41594); experiment: Phosphatidylinositol hydrolysis (IP1) assay in HEK 293 cells transiently transfected with mGluR5a3; type: cell-based; design: expressed in transfected cells; host or cells: HEK 293 cells, transient CaPO4 transfection
Method: HEK 293 cells that had been transiently transfected with mGluR5a3 were plated in 24-well microtiter plates at a density of 8×10^5 cells/well. After the cells were allowed to settle and adhere to the bottom of the plate for a few hours, 2 μCi of [^3H]-myo-inositol (Amersham catalog # PT6-271, Arlington Heights, Ill.; specific activity=17.7 Ci/mmol) was added to each well and incubated overnight at 37° C. The next day, the cells were examined under a Nikon Diaphot inverted microscope to assess the health of the cells morphologically as well as to determine if the wells contained a confluent layer of cells. Media was then aspirated and the cells were washed twice with 0.5 ml Krebs bicarbonate buffer [117.9 mM NaCl, 4.72 mM KCl, 2.54 mM CaCl2, 1.18 mM MgSO4, 1.19 mM KH2PO4, 25 mM NaHCO3, 11.1 mM dextrose (equilibrated with 95% O2, 5% CO2, pH 7.4)]. The cells were incubated for 45 min. at room temperature. The buffer was then aspirated from each well and the cells were washed and incubated in 0.5 ml/well for 45 min at room temperature. The buffer was aspirated from each well, and the cells were then incubated for 20 min at 37° C. with 450 μl Krebs-bicarbonate buffer containing 10 mM LiCl instead of 10 mM NaCl (to block hydrolysis of IP1 to inositol and inorganic phosphate) and 10 mM unlabeled myo-inositol.
To begin treatment of the cells with metabotropic receptor-modulating compounds, 50 μl of Krebs-bicarbonate buffer (control) or 10× the final concentration of the compound was added to each well and the incubation was continued for 40 min. Incubation was terminated by addition of 1 ml ice-cold methanol to each well.
In order to isolate IP1 from the cells, the cells were removed from the plates by scraping with plastic pipette tips, and the cell suspension was transferred to 12×75 mm glass tubes. The tubes were thoroughly vortexed, and a 150-μl aliquot, i.e., one-tenth of the total volume, of each reaction mixture was transferred to another tube for protein determination. The water-soluble inositol phosphates were separated from the radiolabelled membrane phospholipids by extraction in 1 ml chloroform. The tubes were incubated at room temperature for 30 min before centrifugation at 500×g for 5 min at 4° C. The aqueous (top) layer containing the [^3H]-inositol phosphates was transferred to 10-ml syringes connected to Accell QMA SEP-PAK columns (Millipore; Calif.), which were attached to an Amersham Superseparator apparatus that was modified to allow collection into 20-ml scintillation vials. Water (10 ml) was added to the cartridge to remove [^3H]-inositol precursor, followed by 4 ml 0.02 M triethylammonium hydrogen carbonated buffer (TEAB, Fluka; N.Y.). To separately remove [^3H]-IP1, [^3H]-IP2 and [^3H]-IP3 from the cartridge, 4 ml of 0.1 M TEAB, 4 ml of 0.3 M TEAB and 4 ml of 0.4 M TEAB were sequentially added to the cartridge and the separate eluate fractions were collected in large scintillation vials. Ecolume cocktail (15 ml; ICN; California) was added to each vial for subsequent scintillation counting to determine the amount of each IP in the separate fractions. Protein concentration was determined using the Bio-Rad Protein Micro-Assay (Bio-Rad, Richmond, Calif.).

[2] = system: untransfected HEK 293 cells; experiment: Fluorescence imaging assay (fura-2), untransfected control cells; type: cell-based, human; conditions: 100 μM, on average
Method: (§1) HEK 293 cells that had been transiently transfected with mGluR5a3 and untransfected HEK 293 cells (control) were analyzed by digital video imaging in order to visualize metabotropic receptor-mediated changes in intracellular Ca^++ concentration. Transfectants (4×10^5 cells per 35-mm culture dish with glass-insert bottom) were loaded with fura-2 by exposing the cells to 1 μM fura-2 (acetoxymethyl ester) for 25 min at room temperature in the dark. The cells were then washed three times with DMEM and four times with Ringer's (160 mM NaCl, 5 mM KCl, 2 mM CaCl2, 1 mM MgCl2, 11 mM glucose, 5 mM HEPES, pH 7.3) solution.
(§2) The transfectants and untransfected cells were then placed on the stage of an Axiovert 100 TV inverted microscope (Zeiss, Oberkochren, Germany) equipped with a 150 W xenon lamp as the UV light source. […]
(§3) The uncalibrated fura-2 ratios were used to generate pseudocolor images with purple corresponding to resting intracellular Ca^++ concentration (˜100 nM) and red to high intracellular Ca^++ concentration (˜1 μM). For quantitative analysis, the average ratio value in a 12-by-12 pixel region over each cell was calculated by the software for each ratio image in an experiment and imported into a spreadsheet for further analysis and graphing.

human mGluR5a receptor [3] = molecular target: T1, human mGluR5a receptor; experiment: Fluorescence imaging assay (fura-2) in HEK 293 cells transiently transfected with mGluR5a3; type: cell-based; design: expressed in transfected cells; host or cells: HEK 293 cells, transient CaPO4 transfection; conditions: 100 μM; HEK 293 transiently transfected with mGluR5a3
Method: as §1, §2, §3

[4] = 1 mM, HEK 293 transfected with 0.18 μg of mGluR5a3
[5] = varying amounts of compound, cells transfected with mGluR5a3

T1 sequence (P41594 21-1180 isoform P41594-2 limits assumed): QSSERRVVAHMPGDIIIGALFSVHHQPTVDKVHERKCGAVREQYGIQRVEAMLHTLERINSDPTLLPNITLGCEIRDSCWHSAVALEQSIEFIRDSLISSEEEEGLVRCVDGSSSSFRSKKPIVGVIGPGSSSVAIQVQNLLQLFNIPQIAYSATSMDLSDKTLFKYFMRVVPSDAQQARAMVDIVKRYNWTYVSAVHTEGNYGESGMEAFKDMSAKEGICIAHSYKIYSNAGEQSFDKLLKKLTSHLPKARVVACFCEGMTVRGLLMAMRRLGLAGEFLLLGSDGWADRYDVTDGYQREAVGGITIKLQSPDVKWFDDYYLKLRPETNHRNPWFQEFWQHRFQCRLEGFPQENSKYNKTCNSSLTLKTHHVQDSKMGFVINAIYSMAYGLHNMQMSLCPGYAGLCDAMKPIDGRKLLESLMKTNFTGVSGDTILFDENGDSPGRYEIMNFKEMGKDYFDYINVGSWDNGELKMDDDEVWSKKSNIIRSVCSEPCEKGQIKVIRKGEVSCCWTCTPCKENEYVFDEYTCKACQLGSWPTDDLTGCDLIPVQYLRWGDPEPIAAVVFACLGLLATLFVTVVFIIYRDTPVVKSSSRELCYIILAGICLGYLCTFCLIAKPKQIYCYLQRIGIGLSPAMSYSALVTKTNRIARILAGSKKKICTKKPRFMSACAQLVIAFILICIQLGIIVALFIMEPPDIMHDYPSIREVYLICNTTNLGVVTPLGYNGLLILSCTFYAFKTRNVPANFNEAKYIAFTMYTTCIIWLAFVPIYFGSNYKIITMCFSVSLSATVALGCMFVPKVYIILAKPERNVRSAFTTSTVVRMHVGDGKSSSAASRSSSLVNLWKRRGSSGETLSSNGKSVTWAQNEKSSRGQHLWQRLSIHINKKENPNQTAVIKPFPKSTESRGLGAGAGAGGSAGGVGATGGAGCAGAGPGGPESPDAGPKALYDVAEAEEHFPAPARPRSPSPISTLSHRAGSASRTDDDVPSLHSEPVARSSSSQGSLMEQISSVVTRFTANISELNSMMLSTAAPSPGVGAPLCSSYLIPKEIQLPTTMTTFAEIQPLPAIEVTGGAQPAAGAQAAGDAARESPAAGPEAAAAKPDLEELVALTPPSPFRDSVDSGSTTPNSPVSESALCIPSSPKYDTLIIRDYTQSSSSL

| Structure (SMILES) | IP1 levels on treatment with compound (human mGluR5a receptor [1]; [4]) | dose-response of IP1 levels (human mGluR5a receptor [1]; [5]) | intracellular Ca++ concentration change [2] | IP1 levels on treatment with compound (human mGluR5a receptor [1]) | dose-response of IP1 levels (human mGluR5a receptor [1]) | transfected cells whose intracellular Ca++ concentration increased (human mGluR5a receptor [3]) |
| --- | --- | --- | --- | --- | --- | --- |
| NC1(C(=O)O)CCC(C(=O)O)C1 (stereo not drawn) [1S,3R-ACPD, 1-amino-cyclopentyl-1,3-dicarboxylic acid] | detectable increases in IP1 levels | IP1 levels increased with increasing concentration |  |  |  |  |
| N[C@@H](CCC(=O)O)C(=O)O [glutamate] | detectable increases in IP1 levels | IP1 levels increased with increasing concentration |  |  |  |  |
| N[C@@H](Cn1oc(=O)[nH]c1=O)C(=O)O [quisqualate] |  |  | did not change | detectable increases in IP1 levels | IP1 levels increased with increasing concentration | 26.7±22.3% |
